Measured values as given in patent US10766869B2, “Triazoles for the treatment of demyelinating dieases” (Vertex Pharmaceuticals Incorporated, priority 2015, dated 2020).
Read-outs that look alike come from different tables or passages of the source.

Test system: primary rat mixed cortical cells
Experiment: In vitro myelination assay (MBP positive myelin strands, fold myelin pixels above background)
Type: cell-based
Settings: Rattus norvegicus; for fold induction at 1 µM: 1.0 μM compound; for fold induction at 10 µM: 10.0 μM compound
From the text: In Vitro Myelination Assay
Compounds were screened for their ability to induce myelination using a primary rat mixed cortical cell culture assay, which contains neurons, oligodendrocyte precursor cells, oligodendrocytes, astrocytes and microglia. The assay quantifies myelination by measuring myelin basic protein (MBP) immunofluorescent positive myelin strands from images taken using a Cellomics Array Scan (model Arrayscan VTI HCS Reader) or a Molecular Devices Image Xpress (model IXM XL) high content imager. The myelin strands were quantitated using a custom created myelin detection software program. Test compounds were dissolved in DMSO to make a 10 mM initial stock solution. Dilutions were made in myelination medium to obtain the final solutions for the assay and were tested in primary rat mixed cortical cells at selected doses.
Primary rat mixed cortical cells were prepared from harvested cerebral cortices from postnatal day 1 (P1) rats (P1 Rat CD® IGS pups) were purchased from Charles River) in Complete Dissociation Medium, wherein the meninges were removed and the cortical tissue chopped with a razor blade into ˜1 mm^3 pieces. Tissue from 1-3 pups was collected and placed into 15 ml conical tubes in a total volume of 5 ml of Complete Dissociation Medium. Activated papain (3 ml) was added to each 15 ml conical tube and tissue was incubated at 37° C. for 30 minutes. After the 30 minute incubation, DNase (Sigma D4527; 75 μl of a 1 mg/ml stock) was added to each tube, followed by mechanical trituration using a 2 ml serological pipette and autopipettor to gently dissociate the tissue. Following trituration, larger tissue pieces were allowed to settle by gravity, and the supernatant containing dissociated cells was transferred to a 50 ml conical tube with 4 ml of trypsin inhibitor. Cells were pelleted by centrifugation, resuspended in myelination medium and filtered through a 40 μm filter. Cells were then seeded in 96-well plates (BD Biosciences, Black, PDL-coated, Cat. No. 356640) at 87,500-95,000 cells/well in a final volume of 200 μl of Myelination Medium in the presence or absence of compound and cultured for 14 days in a humidified 37° C. incubator with 5% CO2. Half the medium was removed and replaced with fresh medium containing 1× compound on days 6 and 10. Using a Biotek automatic plate washer (model Biomek® FXP Laboratory Automation Workstation), cells were fixed with 4% paraformaldehyde on day 14, washed with PBS and blocked in 5% normal goat serum (Vector Laboratories, S-1000) in 0.1% PBS-TritonX-100 (PBST) for 1 hour. Cells were stained with 1:500 anti-MBP (Covance, cat # SMI99) primary antibody in 1% normal goat serum in 0.1% PBST for 2 hours at room temperature followed by 2 washes with PBST. A final incubation in secondary antibody (1:1000, Invitrogen, Alexa-488 anti-mouse IgG2b) and 1:10,000 Hoechst dye in 1% normal goat serum in 0.1% PBST was performed for 2 hours at room temperature. Plates were washed with PBS and then scanned on a Cellomics Array Scan using a 10× objective (25 images per well) or the Image Xpress using a 10× objective (9 image per well). Images were analyzed using Vertex myelin detection software (described below) to quantify total MBP myelin pixels per well. Fold myelin pixels above background at two concentrations (1.0 μM and 10.0 μM) relative to baseline of no added compound are reported below in Table 4. Standard deviation for each compound concentration was calculated using all replicates and using a standard deviation formula commonly used in the art.
One of skill in the art would recognize that for this type of primary neuronal mixed cell assay variability between different assay runs is to be expected even though the protocol is the same for each assay run. For instance, variability may be due to small differences in cell viability, cell density, age of the animals, etc.
Vertex Myelin Detection Software: […]

[1] = relative to baseline of no added compound, read-out: Fold myelin pixels above background
[2] = relative to baseline of no added compound, read-out: Fold myelin pixels above background, 1.0 μM
[3] = relative to baseline of no added compound, read-out: Fold myelin pixels above background, 10.0 μM
[4] = read-out: Fold myelin pixels above background relative to baseline of no added compound

`Cc1cc(Nc2ncn(-c3cc(F)cc(F)c3)n2)cc(N2CC(C)(O)C2)c1` [Compound 551, 1-[3-[[1-(3,5-difluorophenyl)-1,2,4-triazol-3-yl]amino]-5-methyl-phenyl]-3-methyl-azetidin-3-ol] was tested, and the fold induction at 1 µM [1] was 100 to 1000 and the fold induction at 10 µM [1] was 10 to 100.
`Cc1cc(Nc2ncn(-c3cccc(F)n3)n2)cc(N2CCN(C3COC3)CC2)c1` [Compound 154, 1-(6-fluoro-2-pyridyl)-N-[3-methyl-5-[4-(oxetan-3-yl)piperazin-1-yl]phenyl]-1,2,4-triazol-3-amine] showed a fold induction at 1 µM [2] of 100 to 1000 and a fold induction at 10 µM [3] of 100 to 1000.
`Cc1cc(Nc2ncn(-c3cc(F)cc(F)c3)n2)cc(NC2CCN(C3CCC3)CC2)c1` [Compound 1070, N1-(1-cyclobutyl-4-piperidyl)-N3-[1-(3,5-difluorophenyl)-1,2,4-triazol-3-yl]-5-methyl-benzene-1,3-diamine] gave a fold induction at 1 µM [4] of 10 to 100 and a fold induction at 10 µM [4] of no more than 1.
`Cc1cc(Nc2ncn(-c3cc(F)cc(F)c3)n2)cc(N2CCCN(C3COC3)CC2)c1` [Compound 637, 1-(3,5-difluorophenyl)-N-[3-methyl-5-[4-(oxetan-3-yl)-1,4-diazepan-1-yl]phenyl]-1,2,4-triazol-3-amine] was tested, and the fold induction at 1 µM [1] was 100 to 1000 and the fold induction at 10 µM [1] was no more than 1.
With `Cc1cc(Nc2ncn(-c3cc(F)cc(F)c3)n2)cc(OCC2CC(F)(F)C2)c1` [Compound 706, N-[3-[(3,3-difluorocyclobutyl)methoxy]-5-methyl-phenyl]-1-(3,5-difluorophenyl)-1,2,4-triazol-3-amine] the fold induction at 1 µM [1] was 1 to 10 and the fold induction at 10 µM [1] was 1 to 10.
`CCN(CC)C(=O)C1CN(c2cc(C)cc(Nc3ncn(-c4cc(F)cc(F)c4)n3)c2)C1` [Compound 817, 1-[3-[[1-(3,5-difluorophenyl)-1,2,4-triazol-3-yl]amino]-5-methyl-phenyl]-N,N-diethyl-azetidine-3-carboxamide] was tested, and the fold induction at 1 µM [4] was 10 to 100 and the fold induction at 10 µM [4] was 10 to 100.
`Cc1cc(Nc2ncn(-c3cc(F)cc(F)c3)n2)cc(O[C@H]2C[C@H](N3CCOCC3)C2)c1` [Compound 752, 1-(3,5-difluorophenyl)-N-[3-methyl-5-(3-morpholinocyclobutoxy)phenyl]-1,2,4-triazol-3-amine] was tested, and the fold induction at 1 µM [1] was 10 to 100 and the fold induction at 10 µM [1] was 1 to 10.
For `Cc1cc(Nc2ncn(-c3ccccc3)n2)cc(C2CCN(C)CC2)c1` [Compound 333, N-[3-methyl-5-(1-methyl-4-piperidyl)phenyl]-1-phenyl-1,2,4-triazol-3-amine], the fold induction at 1 µM [2] was 1000 to 10000 and the fold induction at 10 µM [3] was no more than 1.
In the case of `COc1cccc(-n2cnc(Nc3cc(C)cc(N4CCN(C)CC4)c3)n2)c1` [Compound 94, 1-(3-methoxyphenyl)-N-[3-methyl-5-(4-methylpiperazin-1-yl)phenyl]-1,2,4-triazol-3-amine], the fold induction at 1 µM [2] is reported as 100 to 1000 and the fold induction at 10 µM [3] is reported as 1 to 10.
In the case of `CC(C)(C)c1cc(Nc2ncn(-c3cc(F)cc(F)c3)n2)cc(N2CCN(C3COC3)CC2)c1` [Compound 17, N-[3-tert-butyl-5-[4-(oxetan-3-yl)piperazin-1-yl]phenyl]-1-(3,5-difluorophenyl)-1,2,4-triazol-3-amine], the fold induction at 1 µM [2] is reported as 100 to 1000 and the fold induction at 10 µM [3] is reported as no more than 1.
In the case of `Cc1cc(NCC(C)N2CC(C)OC(C)C2)cc(Nc2ncn(-c3cc(F)cc(F)c3)n2)c1` (stereo not drawn) [Compound 882, N1-[1-(3,5-difluorophenyl)-1,2,4-triazol-3-yl]-N3-[2-(2,6-dimethylmorpholin-4-yl)propyl]-5-methyl-benzene-1,3-diamine], the fold induction at 1 µM [4] is reported as 1 to 10 and the fold induction at 10 µM [4] is reported as 1 to 10.
With `Cc1cc(Nc2ncn(-c3cc(F)cc(F)c3)n2)nc(N2CC(C#N)C2)c1` [Compound 821, 1-[6-[[1-(3,5-difluorophenyl)-1,2,4-triazol-3-yl]amino]-4-methyl-2-pyridyl]azetidine-3-carbonitrile] the fold induction at 1 µM [4] was no more than 1 and the fold induction at 10 µM [4] was 10 to 100.
`CC(=O)N1CCCC(c2cc(C)cc(Nc3ncn(-c4ccccc4)n3)c2)C1` (stereo not drawn) [Compound 117, 1-[3-[3-methyl-5-[(1-phenyl-1,2,4-triazol-3-yl)amino]phenyl]-1-piperidyl]ethanone] was tested, and the fold induction at 1 µM [2] was 1000 to 10000 and the fold induction at 10 µM [3] was no more than 1.
`Cc1cc(Nc2ncn(-c3ccccn3)n2)c(F)c(N2CCN(C3COC3)CC2)c1` [Compound 908, N-[2-fluoro-5-methyl-3-[4-(oxetan-3-yl)piperazin-1-yl]phenyl]-1-(2-pyridyl)-1,2,4-triazol-3-amine] gave a fold induction at 1 µM [4] of 1 to 10 and a fold induction at 10 µM [4] of 10 to 100.
For `CCc1cc(Nc2ncn(-c3cc(F)cc(F)c3)n2)cc(N2CC(N3CCOCC3)C2)c1` [Compound 173, 1-(3,5-difluorophenyl)-N-[3-ethyl-5-(3-morpholinoazetidin-1-yl)phenyl]-1,2,4-triazol-3-amine], the fold induction at 1 µM [2] was 100 to 1000 and the fold induction at 10 µM [3] was 10 to 100.
`Fc1cc(F)cc(-n2cnc(Nc3cc(C(F)(F)F)cc(N4CCN(C5COC5)CC4)n3)n2)c1` [Compound 540, N-[1-(3,5-difluorophenyl)-1,2,4-triazol-3-yl]-6-[4-(oxetan-3-yl)piperazin-1-yl]-4-(trifluoromethyl)pyridin-2-amine] was tested, and the fold induction at 1 µM [1] was 10 to 100 and the fold induction at 10 µM [1] was 100 to 1000.
For `Cc1cc(Nc2ncn(-c3cc(F)cc(F)c3)n2)cc(C2CCN(C)CC2)c1` [Compound 151, 1-(3,5-difluorophenyl)-N-[3-methyl-5-(1-methyl-4-piperidyl)phenyl]-1,2,4-triazol-3-amine], the fold induction at 1 µM [2] was 10 to 100 and the fold induction at 10 µM [3] was no more than 1.
`FC(F)c1cccc(-n2cnc(Nc3cc(C(F)F)cc(N4CC(N5CCOCC5)C4)n3)n2)c1` [Compound 756, 4-(difluoromethyl)-N-[1-[3-(difluoromethyl)phenyl]-1,2,4-triazol-3-yl]-6-(3-morpholinoazetidin-1-yl)pyridin-2-amine] gave a fold induction at 1 µM [1] of 1 to 10 and a fold induction at 10 µM [1] of 10 to 100.
Work on `Cc1cc(Nc2ncn(-c3ccccc3)n2)cc(C2COC2)c1` [Compound 363, N-[3-methyl-5-(oxetan-3-yl)phenyl]-1-phenyl-1,2,4-triazol-3-amine] yielded a fold induction at 1 µM [2] of 1000 to 10000 and a fold induction at 10 µM [3] of 100 to 1000.
`Cc1cc(Nc2ncn(-c3cc(F)cc(F)c3)n2)c(F)c(N(C)C2COC2)c1` [Compound 969, N3-[1-(3,5-difluorophenyl)-1,2,4-triazol-3-yl]-2-fluoro-N1,5-dimethyl-N1-(oxetan-3-yl)benzene-1,3-diamine] was tested, and the fold induction at 1 µM [4] was 1 to 10 and the fold induction at 10 µM [4] was no more than 1.
`[2H]C1([2H])N(CC(F)F)C([2H])([2H])C([2H])([2H])N(c2cc(C)cc(Nc3ncn(-c4cc(F)cc(F)c4)n3)c2)C1([2H])[2H]` [Compound 935, 1-(3,5-difluorophenyl)-N-[3-methyl-5-[2,2,3,3,5,5,6,6-octadeuterio-4-(2,2-difluoroethyl)piperazin-1-yl]phenyl]-1,2,4-triazol-3-amine] gave a fold induction at 1 µM [4] of 10 to 100.
For `Cc1cc(Nc2ncn(-c3cc(F)cc(F)c3)n2)cc(C2=CCN(C3COC3)CC2)c1` [Compound 61, 1-(3,5-difluorophenyl)-N-[3-methyl-5-[1-(oxetan-3-yl)-3,6-dihydro-2H-pyridin-4-yl]phenyl]-1,2,4-triazol-3-amine], the fold induction at 1 µM [2] was 1000 to 10000 and the fold induction at 10 µM [3] was no more than 1.
`Cc1cc(Nc2ncn(-c3cc(C)nc(C)n3)n2)cc(N2CCN(C3COC3)CC2)c1` [Compound 312, 1-(2,6-dimethylpyrimidin-4-yl)-N-[3-methyl-5-[4-(oxetan-3-yl)piperazin-1-yl]phenyl]-1,2,4-triazol-3-amine] was tested, and the fold induction at 1 µM [2] was 1 to 10 and the fold induction at 10 µM [3] was 1 to 10.
